Experimental data from patent publication US20240041754A1, “NOVEL SACCHAROMYCES CEREVISIAE STRAIN AND USE THEREOF” (LG HOUSEHOLD & HEALTH CARE LTD., priority 2020, published 2024).

Key:
[1] = test system: Human keratinocytes (HaCaT); assay: Hyaluronic acid synthesis enhancement, Quantikine ELISA Hyaluronan; assay type: cell-based; settings: 1 ppm, 72 hours, vs negative control (DMEM containing 0% serum)
Method: Human keratinocytes (HaCaT) were treated with each sample for 72 hours. Thereafter, a hyaluronic acid synthesis rate was derived by measuring hyaluronic acid using R&D systems' Quantikine ELISA Hyaluronan. The skin moisturizing ability of the sample was expressed as an increase rate (%) of hyaluronic acid synthesis, which was calculated and quantified in comparison to a negative control group (treated with DMEM containing 0% serum).
The calculation formula of the increase rate of hyaluronic acid synthesis, each sample, and the results thereof are shown in Table 6 below.
Increase rate of hyaluronic acid synthesis (%)=(Hyaluronic acid synthesis rate of Sample−Hyaluronic acid synthesis rate of Negative control)/Hyaluronic acid synthesis rate of Negative control

Human dermal fibroblasts = assay: Collagen synthesis enhancement, procollagen type I C-peptide (PIP) EIA kit; assay type: cell-based; settings: 10 ppb, 48 hours, vs negative control (DMEM containing 0% serum)
Method: Human dermal fibroblasts were treated with each sample for 48 hours. Thereafter, a collagen synthesis rate was measured by detecting collagen using a method of a procollagen type I C-peptide (PIP) EIA kit. The collagen synthesis efficiency of the sample was expressed as an increase rate (%) of collagen synthesis, which was calculated and quantified in comparison to a negative control group (DMEM containing 0% serum).
Increase rate of collagen synthesis (%)=(Collagen synthesis rate of Sample−Collagen synthesis rate of Negative control)/Collagen synthesis rate of Negative control

Q: With `CC1=C(/C=C/C(C)=C/C=C/C(C)=C/C(=O)O)C(C)(C)CCC1` [Retinoic acid] as the molecule, how does the “Increase rate of hyaluronic acid synthesis” value [1] read?
A: The value was 13.8%.

Q: With TGF-β as the molecule, how does the “Increase rate of collagen synthesis” value (Human dermal fibroblasts) read?
A: Its value is 15.2%.
